Assay results taken from PubChem BioAssay AID1645864 (Buhrlage Lab, Dana-Farber Cancer Institute and Novartis …, 2021).
Activity calls are given as the source filed them.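 Rule for the calls: active = maximal inhibition of USP17 at or above 30% in the confirmation dose-response, a value not among the printed readouts; inactive = the rest.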

Each compound was assayed against Ubiquitin carboxyl-terminal hydrolase 17-like protein 5 (Homo sapiens) (UniProt A8MUK1) (assay: ubiquitin-specific protease 17 inhibitors, concentration series, biochemical, verification of primary actives (AID 1645864)). Conditions: purified USP17, ubiquitin-rhodamine cleavage fluorescence, 3 h.
Chain of Ubiquitin carboxyl-terminal hydrolase 17-like protein 5 (Homo sapiens) (A8MUK1 whole entry, looked up): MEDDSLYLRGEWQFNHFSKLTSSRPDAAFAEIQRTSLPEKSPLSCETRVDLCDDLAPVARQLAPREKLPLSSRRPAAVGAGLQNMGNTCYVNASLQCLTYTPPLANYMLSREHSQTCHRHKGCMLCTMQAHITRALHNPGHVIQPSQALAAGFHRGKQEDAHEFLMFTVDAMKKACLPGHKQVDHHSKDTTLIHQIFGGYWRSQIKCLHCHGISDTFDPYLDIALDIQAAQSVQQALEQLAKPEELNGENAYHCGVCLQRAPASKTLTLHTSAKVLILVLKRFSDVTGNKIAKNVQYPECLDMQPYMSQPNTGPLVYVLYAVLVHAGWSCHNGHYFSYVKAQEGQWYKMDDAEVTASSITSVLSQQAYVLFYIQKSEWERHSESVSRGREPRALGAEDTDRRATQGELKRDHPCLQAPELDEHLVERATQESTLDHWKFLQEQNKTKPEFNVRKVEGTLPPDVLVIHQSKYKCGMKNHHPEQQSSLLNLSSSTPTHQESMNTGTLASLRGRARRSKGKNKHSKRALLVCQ
In the case of `Cc1ccc(-c2cn(CC(=O)N3CCN(c4ccccn4)CC3)c(=O)o2)cc1`, the IC50 is reported as 13 µM.
Compound `O=C(CN1C(=O)c2ccccc2Sc2ccc(C(=O)N3CCCC3)cc21)Nc1ccccc1Cl` has an IC50 of 34.1 µM.
In the case of `COc1cc(N)c(Cl)cc1C(=O)OCC(=O)c1ccc2c(c1)OCCO2`, the IC50 is reported as > 50 µM (inactive).
In the case of `Cc1ccccc1NC(=O)Cn1cc(-c2nc(C3CC3)no2)ccc1=O`, the IC50 is reported as > 50 µM (inactive).
`Cc1ccc(C(=O)Nc2ccc(S(=O)(=O)N3CCCC3)cc2)cc1Br` was tested, and the IC50 was > 50 µM (inactive).
In the case of `COc1cc(Cl)ccc1Nc1ncc(C(=O)Nc2cc(OC)c(OC)c(OC)c2)c2ccccc12`, the IC50 is reported as under 0.05 µM.
Work on `O=C(Cn1c(=O)n(CC(=O)NC2CCCC2)c(=O)c2ccccc21)Nc1cc(Cl)ccc1Cl` yielded an IC50 of 4.66 µM.
For `CCOc1ccc(NC(=O)COc2cccc3c2CCN(CC)C3=O)cc1`, the IC50 was > 50 µM (inactive).
`O=C(OCc1ccc(Br)cc1)c1ccc2ccccc2n1` was tested, and the IC50 was > 50 µM (inactive).
`COc1cc(O)c2c(c1)C1=CC(=O)C(O)=C[C@]1(C)OC2=O` gave an IC50 of 49.4 µM.
`CN(C)c1ccc(/C=N/NC(=O)c2ccc(Cl)cc2)cc1` gave an IC50 of 6.27 µM.
`Cc1cc(C)c2cc(CN(CCc3ccccc3)C(=O)Nc3ccccc3)c(=O)[nH]c2c1` gave an IC50 of 43.5 µM.
With `COc1ccc(-c2cc(C(F)F)n3ncc(C(=O)Nc4ccc5c(c4)OCCO5)c3n2)cc1` the IC50 was > 50 µM (inactive).
`CCOc1ccc2c(c1)c(=O)c(C(=O)c1ccccc1)cn2CC(=O)Nc1ccc2c(c1)OCCO2` was tested, and the IC50 was 20.4 µM.
Compound `Cc1ccc(-n2c(=O)c3ccccc3n(Cc3c(F)cccc3Cl)c2=O)cc1` has an IC50 of 3.57 µM.
For `CC1=C(c2ccc(C)c(C)c2)S(=O)(=O)NC1=NCC(=O)NCCc1ccc(C)cc1`, the IC50 was 46.1 µM.
`Cc1nn(C)c2c1[C@@H](c1ccc(F)cc1)[C@H](NC(=O)c1ccccc1)C(=O)N2` was tested, and the IC50 was > 50 µM (inactive).
In the case of `Cc1noc(C)c1S(=O)(=O)Nc1ccc(C(=O)Nc2ccc3c(c2)OCCO3)cc1`, the IC50 is reported as > 50 µM (inactive).
Work on `CCn1c(=O)c(=O)[nH]c2cc(C(=O)Nc3cccc(-c4csc(C)n4)c3)ccc21` yielded an IC50 of 26.9 µM.
For `COc1ccc(NC(=O)c2ccc(Nc3nnc(C)c4ccccc34)cc2)cc1`, the IC50 was > 50 µM (inactive).
For `Cc1ccc(-c2c(C(=O)Nc3ccc(S(N)(=O)=O)cc3)oc(=O)c3ccccc23)cc1`, the IC50 was 31.9 µM.
For `O=C(CCc1nnc2n(Cc3ccc(F)cc3)c(=O)c3ccccc3n12)N1CCN(c2ccccn2)CC1`, the IC50 was > 50 µM (inactive).
For `Cc1ccc(NC(=O)c2cc(=O)n(C)c3c2c(=O)n(C)c(=O)n3C)c(C)c1`, the IC50 was > 50 µM (inactive).
`Cc1cccc(NC(=O)Cn2cnc(-c3noc(-c4ccccc4)n3)c2)c1C` was tested, and the IC50 was 1.35 µM.
For `O=c1c(-c2nc(C3CC3)no2)cccn1Cc1c(F)cccc1Cl`, the IC50 was > 50 µM (inactive).
With `O=C(Nc1cccc(Cl)c1)c1ncn2c1CNS(=O)(=O)c1ccccc1-2` the IC50 was 6.05 µM.
`Cc1sc2nc(CN3CCCC3)nc(NCCc3ccc(Cl)cc3)c2c1C` was tested, and the IC50 was > 50 µM (inactive).
With `CCn1c(Cn2cccn2)nc2cc(NC(=O)c3ccc(F)cc3)ccc21` the IC50 was > 50 µM (inactive).
`COc1cc(NC(=O)Cc2ccccc2)ccc1NC(=O)c1cc2ccccc2o1` was tested, and the IC50 was 9.82 µM.
With `O=C(Cn1cc(C(=O)C(F)(F)F)c2ccccc21)N1CCc2ccccc21` the IC50 was 3.5 µM.
Compound `O=C(Nc1ccccc1)C1CCCN(C(=O)c2cc3ccccc3[nH]2)C1` (stereo unspecified) has an IC50 of 38.7 µM.
For `COc1ccc(-c2cc3c(=O)n(CC(=O)Nc4ccccc4F)ccn3n2)cc1OC`, the IC50 was 3.97 µM.
With `COc1ccc(C2C(C(=O)C(C)(C)C)N3c4ccccc4C=CC3C23C(=O)c2ccccc2C3=O)c(OC)c1` (stereo unspecified) the IC50 was > 50 µM (inactive).
For `Cc1cccc(-n2ccnc(SCC(=O)Nc3ccc(Cl)cc3F)c2=O)c1`, the IC50 was 2.21 µM.
`COc1ccc(C(=O)C2CC(=O)Nc3c2c(C)nn3-c2ccc(Br)cc2)cc1` (stereo unspecified) was tested, and the IC50 was 10 µM.
Work on `COc1ccc(CC(=O)Nc2ccc3nc(N4CCOCC4)cc(C)c3c2)cc1` yielded an IC50 of 24.2 µM.
Compound `O=C(NCc1cccc(NC(=O)C2CC2)c1)Nc1cccc2ccccc12` has an IC50 of 39.7 µM.
In the case of `O=C(Nc1oc2ccccc2c(=O)c1-c1ccc2c(c1)OCO2)C1CCCCC1`, the IC50 is reported as 30.1 µM.
`O=C(Cc1cc(-c2ccc(F)cc2)on1)NCc1ccccc1` showed an IC50 of 15.9 µM.
In the case of `Cc1nn(CC(=O)Nc2ccc(Br)c3cccnc23)c(=O)c2ccccc12`, the IC50 is reported as 12.7 µM.
With `O=C(O)C1CCN(Cc2c(-c3ccco3)nc3ccc(Cl)cn23)CC1` the IC50 was > 50 µM (inactive).
Work on `CC(CCc1ccccc1)NC(=O)Cn1c(=O)c2cccn2c2ccccc21` (stereo unspecified) yielded an IC50 of 11.6 µM.
For `Cc1ccc(C)c(-n2c(C)cc(/C=C3/C(=N)N4C(c5ccc(F)cc5)=CSC4=NC3=O)c2C)c1`, the IC50 was > 50 µM (inactive).
For `CCC(=O)Nc1ccc2c(c1)nc(CSc1nccc(C)n1)n2CC`, the IC50 was > 50 µM (inactive).
`CCOC(=O)c1ccc(NC(=O)COc2cccc3c2CCN(CC)C3=O)cc1` was tested, and the IC50 was > 50 µM (inactive).
`Cc1nc2c3ccccc3nc(NCc3ccc4c(c3)OCO4)n2n1` was tested, and the IC50 was 33.8 µM.
`Cc1nnc(Sc2cc(C(=O)NCCN3CCCC3)c3ccccc3n2)s1` showed an IC50 of 30 µM.
For `Cc1noc(C)c1CN1CC[C@H]2O[C@H](C(=O)NCc3ccco3)CC[C@H]21`, the IC50 was > 50 µM (inactive).
Work on `Cc1cccc(CNC(=O)C2CCCN(S(=O)(=O)Cc3ccc(F)cc3)C2)c1` (stereo unspecified) yielded an IC50 of 19.1 µM.
For `N#Cc1cccc(NC(=O)Cn2cccc(-c3nc(-c4ccccc4)no3)c2=O)c1`, the IC50 was > 50 µM (inactive).
Work on `O=C(Cn1cccc1-c1nc(-c2ccccc2)cs1)N1CCOCC1` yielded an IC50 of 16 µM.
With `CCOc1ccccc1NC(=O)COc1cc(OC)ccc1C(=O)c1ccccc1` the IC50 was > 50 µM (inactive).
For `Cc1ccc(S(=O)(=O)N(C)C)cc1NC(=O)Cc1ccc(Cl)c(Cl)c1`, the IC50 was > 50 µM (inactive).
For `COc1ccc(/C=C/c2ccnc3nc(-n4cccc4)nn23)cc1`, the IC50 was > 50 µM (inactive).
For `C=C(NC(=O)C(=C)NC(=O)c1csc(C2=N[C@@H]3c4csc(n4)[C@H]4NC(=O)c5csc(n5)[C@H]([C@](C)(O)[C@@H](C)O)NC(=O)C5CSC(=N5)/C(=C/C)NC(=O)C([C@@H](C)O)NC(=O)c5csc(n5)[C@]3(CC2)NC(=O)[C@H](C)NC(=O)C(=C)NC(=O)[C@H](C)NC(=O)C([C@@H](C)CC)NC2C=Cc3c(C(C)O)cc(nc3[C@H]2O)C(=O)OC4C)n1)C(N)=O` (stereo partly specified), the IC50 was > 50 µM (inactive).
With `Cc1nc(CN2CCn3c(Cn4cccn4)cnc3C2C)cs1` (stereo unspecified) the IC50 was > 50 µM (inactive).
`O=C(CCc1c[nH]c2ccccc12)Nc1ccc(N2CCOCC2)cc1` was tested, and the IC50 was 30.5 µM.
`COc1cc2c(cc1OC)-c1cc(NCc3cc(OC)c(OC)c(OC)c3)nc(=O)n1CC2` was tested, and the IC50 was > 50 µM (inactive).
For `Cn1c(CCN2CCCC2)nc2cc(NC(=O)c3ccccc3)ccc21`, the IC50 was > 50 µM (inactive).
In the case of `COc1ccc(Cl)cc1N1C(=O)[C@H]2[C@@H](C1=O)[C@]1(C(=O)Nc3c(C)cc(C)cc31)N1CCC[C@@H]21`, the IC50 is reported as > 50 µM (inactive).
In the case of `COc1cc([C@@H]2c3cc4c(cc3C[C@@H]3COC(=O)[C@H]32)OCO4)cc(OC)c1OC`, the IC50 is reported as 17.3 µM.
With `O=C(CN1CCCc2ccccc21)Nc1ccc(N2CCOCC2)cc1` the IC50 was > 50 µM (inactive).
In the case of `Cc1ccc(-c2nnc(-n3ncc(C#N)c3N)c3ccccc23)cc1C`, the IC50 is reported as > 50 µM (inactive).
Work on `Cc1ccc(Cl)cc1NC(=O)c1cc(-c2ccccn2)n[nH]1` yielded an IC50 of 7.13 µM.
In the case of `COCCNC(=O)c1ccc(-c2ccc(N3CCCCC3)nc2)cc1`, the IC50 is reported as 26.8 µM.
`Nc1ccc(NC(=O)c2cc3c(s2)CCC3)cc1[N+](=O)[O-]` was tested, and the IC50 was 24.6 µM.
For `CCOc1ccc(CCNC(=O)c2ccc3c(c2)N(CC)C(=O)c2ccccc2S3)cc1OCC`, the IC50 was > 50 µM (inactive).
In the case of `CC1CCN(c2nc(F)c3c(c2F)S(=O)(=O)CCN3Cc2cccnc2)CC1`, the IC50 is reported as > 50 µM (inactive).
In the case of `Cc1ccc2[nH]cc(S(=O)(=O)c3ccc(C)c(F)c3)c(=O)c2c1`, the IC50 is reported as 42.8 µM.
For `Cc1ccc(NC(=O)CNC(=O)c2cc3ccccc3o2)cc1`, the IC50 was 14.6 µM.
`Cc1cccc(NC(=O)Cn2c(N3CCOCC3)nc3cc(C)n(C)c3c2=O)c1` was tested, and the IC50 was 27.6 µM.
For `Cc1cccc(NC(=O)Nc2ccc(C)n(CC(=O)Nc3ccccc3)c2=O)c1`, the IC50 was 22.6 µM.
For `CN1CCC(N(C)S(=O)(=O)c2ccc(NC(=O)c3cccc(OCc4ccccc4)c3)cc2)CC1`, the IC50 was > 50 µM (inactive).
With `CC1=C2C(=NCCN1)C(=O)N(c1ccccc1)C2c1cccnc1` (stereo unspecified) the IC50 was > 50 µM (inactive).
`CCc1nc(SCC(=O)Nc2ccccc2Cl)c2oc3ccccc3c2n1` was tested, and the IC50 was 0.0527 µM.
Work on `O=C(CSc1ncnc2c1oc1ccccc12)Nc1ccc2c(c1)OCCO2` yielded an IC50 of 29 µM.
In the case of `Oc1sc(C=Nc2cc(Cl)ccc2Cl)c2ccccc12`, the IC50 is reported as 1.46 µM.
For `COc1ccc(C2SCC(=O)Nc3c2c(=O)[nH]n3C2CCCCC2)cc1` (stereo unspecified), the IC50 was 28.7 µM.
For `COc1ccc(CCn2cnc3c([nH]c4ccccc43)c2=O)cc1`, the IC50 was 2.98 µM.
With `O=C(NCCN1CCCC1)C1CCN(c2cnc(N3CCCCC3)nc2)CC1` the IC50 was > 50 µM (inactive).
With `COc1ccc(CCNC(=O)CCn2c(=O)c3ccccc3n(Cc3ccc(C)cc3)c2=O)cc1OC` the IC50 was 28.6 µM.
Compound `c1ccc(-c2nc(-c3nnn(-c4ccccc4)c3-c3ccncc3)no2)cc1` has an IC50 of 3.91 µM.
In the case of `Cc1ccc(CNC(=O)CCCn2c(=O)c3sccc3n(CC(=O)Nc3cc(Cl)ccc3C)c2=O)cc1`, the IC50 is reported as 2.83 µM.
Work on `CC1CC(=O)c2c(cc3c(-c4c(O)cc(O)c5c(O)c6c(cc45)OC(C)CC6=O)c(O)cc(O)c3c2O)O1` (stereo unspecified) yielded an IC50 of 0.486 µM.
`CN(C(=O)c1cccc2cccnc12)c1nc2c(s1)CCc1occc1-2` gave an IC50 of 24.9 µM.
With `CCn1cc(-c2nc(-c3ccccn3)no2)c(=O)c2cc(F)ccc21` the IC50 was 32.5 µM.
Work on `Cn1c2ccccc2c2ncn(Cc3ccc(F)cc3)c(=O)c21` yielded an IC50 of 43.9 µM.
Compound `COc1cccc(N2CCN(C(=O)Nc3ccc4c(c3)NC(=O)CO4)CC2)c1` has an IC50 of 26.6 µM.
In the case of `CCCCc1nc2sc3c(NCCN4CCOCC4)ncnc3c2c2c1CCC2`, the IC50 is reported as > 50 µM (inactive).
`O=S1(=O)CCN(Cc2cccnc2)c2c(F)nc(N3CCOCC3)c(F)c21` was tested, and the IC50 was > 50 µM (inactive).
For `Cc1ccc(/C=C/C(=O)Nc2ccc3c(c2)OCCO3)cc1`, the IC50 was > 50 µM (inactive).
With `O=C(Nc1ccc2c(c1)OCCO2)c1cccc2nc3ccccc3nc12` the IC50 was 2.51 µM.
Work on `O=C(Nc1cccc2ccccc12)N1CCC(c2nc3c(nnn3Cc3ccc(F)cc3)c(=O)[nH]2)CC1` yielded an IC50 of 28.6 µM.
`CC1=C(C(=O)Nc2ccccc2C)C(c2ccc(OCc3ccccc3F)cc2)n2ncnc2N1` (stereo unspecified) gave an IC50 of 34.3 µM.
Compound `CCC1(C)Cc2c(sc3nc(SCC(=O)Nc4ccc(C(C)=O)cc4)nc(N)c23)CO1` (stereo unspecified) has an IC50 of 34.9 µM.
Compound `COc1cc(OC)cc(-n2c(=O)c3sccc3n(CC(=O)Nc3ccc(C)cc3)c2=O)c1` has an IC50 of 10.1 µM.
